Measured values as given in ChEMBL document CHEMBL1201862, “PubChem BioAssay data set” (2004).
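Following 48 hours of exposure in 96-well plates, responses at five concentrations were used to interpolate endpoints linearly. GI50 = concentration required for 50% inhibition of growth.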 The source made the active and inactive calls. Rule as the data show it: active = GI50 up to about 1.1 µM and inactive = higher.

Legend:
Test in all cases: NCI-60 cell line screen, 48 h
DLD-1 = system: DLD-1
DMS-273 = system: DMS-273
KM-20L2 = system: KM-20L2
LXFL 529 = system: LXFL 529
RXF 631 = system: RXF 631
SNB-78 = system: SNB-78
XF498 = system: XF498
HOP-18 = system: HOP-18

Measured: GI50

Cc1cc2c(c(C(=O)O)c1C)-c1cccc(F)c1C2=O
inactive: DLD-1 > 100 µM | DMS-273 > 100 µM | KM-20L2 > 100 µM | LXFL 529 > 100 µM | RXF 631 > 100 µM | SNB-78 > 100 µM | XF498 > 100 µM

COC(=O)C(=O)C(C(=O)C(=O)Nc1ccc(F)cc1)c1nc2ccc([N+](=O)[O-])cc2nc1O (stereo unspecified)
inactive: DLD-1 > 100 µM | HOP-18 > 100 µM | KM-20L2 > 100 µM | LXFL 529 > 100 µM | RXF 631 > 100 µM | SNB-78 > 100 µM | XF498 > 100 µM

CN(C)CC[N+]1=Nc2cccc3cccc(c23)N1
inactive: DLD-1 > 44.4 µM | DMS-273 17.7 µM | KM-20L2 40.7 µM | LXFL 529 58.1 µM | RXF 631 44.5 µM | SNB-78 > 100 µM | XF498 > 86.3 µM

COc1cc(/C=C2\[C@H]3c4c(c(OC)c(C)c(OC)c4OC)C[C@@H](C(=O)N2Cc2ccccc2)N3C(=O)OC(C)C)c(OC)c(C)c1OC
inactive: DLD-1 > 100 µM | DMS-273 25.9 µM | HOP-18 > 100 µM | KM-20L2 > 100 µM | LXFL 529 52.1 µM | RXF 631 > 100 µM

CCOC(=O)/C(C#N)=C\Sc1ccccc1
inactive: DLD-1 18.1 µM | DMS-273 16.3 µM | HOP-18 > 100 µM | KM-20L2 22.8 µM | LXFL 529 15 µM | RXF 631 15.7 µM | SNB-78 28.1 µM | XF498 28.1 µM

O=C(CC1(O)C(=O)Nc2ccc([N+](=O)[O-])cc21)c1ccncc1 (stereo unspecified)
inactive: DLD-1 37.4 µM | HOP-18 27.8 µM | KM-20L2 76.4 µM | RXF 631 20.7 µM | SNB-78 47.2 µM | XF498 15.3 µM

CCCCNc1nc(C#N)c(N)s1
inactive: DLD-1 > 100 µM | DMS-273 > 100 µM | KM-20L2 > 100 µM | LXFL 529 > 100 µM | RXF 631 > 100 µM | SNB-78 > 100 µM | XF498 > 100 µM

Cc1cc([N+](=O)[O-])ccc1NC(=O)C(=O)C(C(=O)c1ccccc1-c1ccccc1)C1OC(=O)c2ccccc21 (stereo unspecified)
inactive: DMS-273 4.99 µM | HOP-18 14.2 µM | KM-20L2 3.48 µM | LXFL 529 15.6 µM | RXF 631 4.75 µM | SNB-78 17.9 µM | XF498 5.93 µM

COC(=O)C(CC(=O)Nc1ccc(Cl)c(Cl)c1)C(=O)C(=O)Nc1ccc(Cl)c(Cl)c1 (stereo unspecified)
inactive: DMS-273 > 100 µM | HOP-18 50.7 µM | KM-20L2 > 100 µM | LXFL 529 > 100 µM | RXF 631 > 100 µM | SNB-78 > 100 µM

CC(c1ccccc1)C(O)S(=O)(=O)O (stereo unspecified)
inactive: DMS-273 > 100 µM | HOP-18 > 100 µM | KM-20L2 > 100 µM | LXFL 529 > 100 µM | RXF 631 > 100 µM | SNB-78 > 100 µM | XF498 > 100 µM

CCN(CC)/[N+]([O-])=N/O
inactive: DMS-273 > 100 µM | KM-20L2 > 100 µM | LXFL 529 > 100 µM | RXF 631 > 100 µM | SNB-78 > 100 µM | XF498 18.9 µM

O[C@H]1[C@H]2[C@H](O)CCCN2C[C@H]1O [TRIDOLGOSIR]
inactive: DLD-1 > 100 µM | DMS-273 > 100 µM | HOP-18 > 100 µM | KM-20L2 > 100 µM | LXFL 529 > 100 µM | SNB-78 > 100 µM | XF498 > 100 µM
